Experimental data from patent US20230160909A1, “NOVEL ION CONDUCTING CHANNEL FUSION SUBUNITS AND METHODS OF USE THEREOF” (UNIVERSITE DE BORDEAUX, priority 2020, published 2023).
pEC50: −log10 of the molar value.

What was measured:
Format in all cases: cell-based
[1] = target: T1, TRPV1 channel (Homo sapiens, UniProt Q8NER1); test: hTRPV1-nLuc-Calflux-YFP (or mNeonGreen) BRET probe in HEK293T cells
T1 construct: expressed in transfected cells; host or cells: HEK293T

[2] = target: T2, TRPV1 ion channel (Homo sapiens, UniProt Q8NER1); test: mNeonGreen-Calflux-nLuc-hTRPV1 BRET biosensor in HEK293T cells; conditions: for inhibition of CAPS-induced BRET increase: FIG. 8C/8E
T2 construct: expressed in transfected cells; host or cells: HEK293T
T2 sequence (Q8NER1 whole entry): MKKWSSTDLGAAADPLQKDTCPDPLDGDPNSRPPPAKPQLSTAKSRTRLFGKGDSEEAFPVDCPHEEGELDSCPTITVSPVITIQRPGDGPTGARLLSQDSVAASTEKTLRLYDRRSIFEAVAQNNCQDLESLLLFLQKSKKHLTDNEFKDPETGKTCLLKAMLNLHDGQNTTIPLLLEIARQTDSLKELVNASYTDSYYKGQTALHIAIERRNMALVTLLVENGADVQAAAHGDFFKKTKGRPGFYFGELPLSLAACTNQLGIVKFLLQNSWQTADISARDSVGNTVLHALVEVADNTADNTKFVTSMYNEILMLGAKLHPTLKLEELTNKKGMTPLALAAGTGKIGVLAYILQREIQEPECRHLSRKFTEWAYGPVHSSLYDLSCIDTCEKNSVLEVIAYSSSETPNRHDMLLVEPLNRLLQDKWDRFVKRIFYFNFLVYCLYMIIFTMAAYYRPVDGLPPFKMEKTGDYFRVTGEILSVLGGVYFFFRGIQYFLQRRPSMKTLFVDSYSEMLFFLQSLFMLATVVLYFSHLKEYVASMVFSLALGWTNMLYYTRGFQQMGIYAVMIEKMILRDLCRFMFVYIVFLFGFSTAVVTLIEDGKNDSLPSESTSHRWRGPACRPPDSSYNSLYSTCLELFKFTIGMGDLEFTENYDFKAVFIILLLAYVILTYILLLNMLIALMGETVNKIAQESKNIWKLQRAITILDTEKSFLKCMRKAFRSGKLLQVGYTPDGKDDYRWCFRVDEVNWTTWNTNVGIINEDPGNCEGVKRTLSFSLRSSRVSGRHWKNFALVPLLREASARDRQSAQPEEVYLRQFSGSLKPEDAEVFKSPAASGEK

[3] = target: T3, TREK1 (Homo sapiens, UniProt O95069); test: mNeon-KBP-nLuc-TREK1 BRET probe in HEK293T cells; conditions: repeated activation with increasing quantities, FIG. 10A
T3 construct: expressed in transfected cells; host or cells: HEK293T
T3 sequence (O95069 1-426): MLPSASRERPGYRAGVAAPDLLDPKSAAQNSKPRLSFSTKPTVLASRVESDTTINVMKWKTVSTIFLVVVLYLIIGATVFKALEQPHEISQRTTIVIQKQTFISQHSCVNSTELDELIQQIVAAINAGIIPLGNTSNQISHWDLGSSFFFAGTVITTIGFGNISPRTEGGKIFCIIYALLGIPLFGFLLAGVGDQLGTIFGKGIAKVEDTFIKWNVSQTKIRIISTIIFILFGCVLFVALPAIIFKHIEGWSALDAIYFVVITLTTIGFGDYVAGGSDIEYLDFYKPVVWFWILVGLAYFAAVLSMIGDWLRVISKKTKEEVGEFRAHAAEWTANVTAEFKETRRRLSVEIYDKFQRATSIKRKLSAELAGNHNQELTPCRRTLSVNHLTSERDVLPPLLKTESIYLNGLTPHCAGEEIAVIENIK
Text: (§1) B) Kinetic measurement of the effect of KCl injection on the BRET measured from HEK293T cells transiently expressing mNeon-Calflux-nLuc-KiR6.1 BRET probe. C) Kinetic measurement of the effect of Deltamethrine injection on the BRET measured from HEK293T cells transiently expressing mNeon-SOFI-nLuc-NaV1.8 BRET probe.
(§2) TREK1 BRET probe was activated using the chemical activator BL1249. Kir6.1 BRET probe was activated using KCl. Following depolarization, a strong outward potassium current is known to occur in HEK293T cells. Extracellular potassium ions would therefore be expected to re-enter the cells through ectopically-expressed inward rectifying ion channels such as KiR6.1, thereby increasing the local concentration of potassium in the intracellular vicinity of the KiR ion channel. NaV1.8 was activated in the presence of Deltamethrin, a pyrethroid toxin that is known to prolong the open state of tetrodotoxin-resistant sodium channels. […] While surprising, this observation could nonetheless be explained knowing that TREK1 trigger hyperpolarisation of the cell membrane by allowing potassium to leak outside cells, thus lowering the intracellular potassium concentration which will tend to balance with the extracellular potassium concentration. In that conditions, it has been shown that potassium will inwardly flow through TREK1 opened pore, which is in line with our observations.

[4] = target: T4, NaV1.8 (Homo sapiens, UniProt Q9Y5Y9); test: mNeon-SOFI-nLuc-NaV1.8 BRET probe in HEK293T cells; conditions: FIG. 10C
T4 construct: expressed in transfected cells; host or cells: HEK293T
T4 sequence (Q9Y5Y9 whole entry): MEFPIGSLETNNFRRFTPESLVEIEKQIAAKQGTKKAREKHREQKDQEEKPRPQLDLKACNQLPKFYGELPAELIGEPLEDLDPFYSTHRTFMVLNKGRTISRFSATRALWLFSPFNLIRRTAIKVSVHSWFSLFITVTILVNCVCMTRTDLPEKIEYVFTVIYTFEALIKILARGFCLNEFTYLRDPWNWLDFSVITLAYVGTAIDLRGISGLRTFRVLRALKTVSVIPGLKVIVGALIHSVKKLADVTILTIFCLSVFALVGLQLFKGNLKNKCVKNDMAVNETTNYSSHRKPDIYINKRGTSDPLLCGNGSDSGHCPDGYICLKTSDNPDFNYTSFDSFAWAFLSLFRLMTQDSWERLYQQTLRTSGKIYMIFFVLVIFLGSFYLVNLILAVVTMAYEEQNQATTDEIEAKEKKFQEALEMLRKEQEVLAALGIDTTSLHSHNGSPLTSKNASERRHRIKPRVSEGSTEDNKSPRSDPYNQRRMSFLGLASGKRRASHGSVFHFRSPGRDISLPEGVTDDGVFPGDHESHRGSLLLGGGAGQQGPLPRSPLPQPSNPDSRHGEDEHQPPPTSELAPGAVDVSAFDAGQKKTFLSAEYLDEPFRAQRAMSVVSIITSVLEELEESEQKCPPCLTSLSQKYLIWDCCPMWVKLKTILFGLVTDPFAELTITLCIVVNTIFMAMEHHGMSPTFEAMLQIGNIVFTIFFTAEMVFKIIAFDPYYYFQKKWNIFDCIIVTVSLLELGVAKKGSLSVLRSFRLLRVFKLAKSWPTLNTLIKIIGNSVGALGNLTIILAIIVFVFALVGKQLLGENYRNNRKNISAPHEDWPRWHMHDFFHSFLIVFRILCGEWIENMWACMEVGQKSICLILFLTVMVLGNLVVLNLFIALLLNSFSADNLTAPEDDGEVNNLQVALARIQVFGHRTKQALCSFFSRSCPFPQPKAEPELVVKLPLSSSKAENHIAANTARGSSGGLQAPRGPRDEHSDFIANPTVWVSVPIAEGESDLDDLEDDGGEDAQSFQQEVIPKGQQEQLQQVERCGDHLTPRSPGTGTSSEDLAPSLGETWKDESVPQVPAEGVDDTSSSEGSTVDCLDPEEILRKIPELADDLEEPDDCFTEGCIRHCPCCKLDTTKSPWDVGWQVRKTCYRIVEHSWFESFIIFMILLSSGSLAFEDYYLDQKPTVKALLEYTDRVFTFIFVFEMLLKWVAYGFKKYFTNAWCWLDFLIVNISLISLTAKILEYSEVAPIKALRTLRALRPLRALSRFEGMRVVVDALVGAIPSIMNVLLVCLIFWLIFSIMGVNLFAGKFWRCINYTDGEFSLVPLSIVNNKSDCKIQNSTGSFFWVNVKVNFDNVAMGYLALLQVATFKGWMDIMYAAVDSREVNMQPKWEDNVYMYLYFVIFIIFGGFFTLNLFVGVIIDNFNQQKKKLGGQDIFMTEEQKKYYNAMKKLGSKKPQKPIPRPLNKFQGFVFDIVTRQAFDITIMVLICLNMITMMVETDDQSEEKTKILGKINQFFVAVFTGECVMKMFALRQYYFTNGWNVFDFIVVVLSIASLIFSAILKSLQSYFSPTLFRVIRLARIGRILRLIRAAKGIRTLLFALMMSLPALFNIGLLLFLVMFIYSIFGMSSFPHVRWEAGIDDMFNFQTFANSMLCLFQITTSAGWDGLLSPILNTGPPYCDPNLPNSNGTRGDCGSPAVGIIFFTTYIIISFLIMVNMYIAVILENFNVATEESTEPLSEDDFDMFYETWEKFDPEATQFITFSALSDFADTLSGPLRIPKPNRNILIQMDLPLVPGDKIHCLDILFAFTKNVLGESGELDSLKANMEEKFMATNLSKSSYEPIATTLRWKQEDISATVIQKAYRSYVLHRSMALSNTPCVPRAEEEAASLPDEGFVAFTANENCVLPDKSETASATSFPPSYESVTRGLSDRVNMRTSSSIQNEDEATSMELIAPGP
Text: as §1, §2

[5] = target: T5, TRPV4 (Homo sapiens, UniProt Q9HBA0); test: mNeonGreen-Calflux-nLuc-hTRPV4 BRET probe in HEK293T cells
T5 construct: expressed in transfected cells; host or cells: HEK293T
T5 sequence (Q9HBA0 whole entry): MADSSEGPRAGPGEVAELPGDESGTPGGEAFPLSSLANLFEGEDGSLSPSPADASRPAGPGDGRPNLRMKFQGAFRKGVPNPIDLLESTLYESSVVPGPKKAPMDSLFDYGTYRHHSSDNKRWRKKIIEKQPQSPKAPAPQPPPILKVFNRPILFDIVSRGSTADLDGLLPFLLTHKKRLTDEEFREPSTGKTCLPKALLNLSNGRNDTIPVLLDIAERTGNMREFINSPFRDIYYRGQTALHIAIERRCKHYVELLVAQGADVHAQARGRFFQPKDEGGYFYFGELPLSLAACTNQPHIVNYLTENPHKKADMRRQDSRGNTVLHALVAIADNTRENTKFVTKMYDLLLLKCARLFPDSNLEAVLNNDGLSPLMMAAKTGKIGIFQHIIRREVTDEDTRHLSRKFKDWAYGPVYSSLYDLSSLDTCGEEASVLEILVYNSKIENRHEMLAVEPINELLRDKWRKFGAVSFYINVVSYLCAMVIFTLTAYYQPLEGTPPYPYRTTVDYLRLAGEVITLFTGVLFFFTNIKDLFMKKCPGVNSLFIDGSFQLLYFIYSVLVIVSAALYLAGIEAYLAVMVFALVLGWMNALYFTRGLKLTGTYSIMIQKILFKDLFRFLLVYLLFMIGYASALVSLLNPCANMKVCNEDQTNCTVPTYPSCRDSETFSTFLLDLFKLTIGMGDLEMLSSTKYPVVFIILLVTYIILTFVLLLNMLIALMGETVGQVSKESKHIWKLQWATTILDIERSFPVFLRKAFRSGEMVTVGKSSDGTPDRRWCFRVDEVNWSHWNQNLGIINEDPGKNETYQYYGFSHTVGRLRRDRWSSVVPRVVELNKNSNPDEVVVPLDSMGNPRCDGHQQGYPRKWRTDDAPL
Experimental: (§3) B) Dose response curve of the TRPM8 agonist WS12 to trigger activation of the mNeon-Calflux-nLuc-hTRPM8 BRET probe transiently expressed in HEK293T cells that were pre-treated or not with 10 μM of the TRPM8 antagonist M8B hydrochloride. C) Dose response curve of the PIEZO1 agonist YODA1 to trigger activation of the mNeon-Calflux-nLuc-PIEZO1 BRET probe transiently expressed in HEK293T cells. Data represent the average of at least three independent experiments.
(§4) As described above in Examples 7 and 8, the intramolecular BRET biosensor probes hTRPM8-nLuc-Calflux-mGreen and hTRPV4-nLuc-Calflux-mGreen have been prepared wherein the DNA sequence encoding the human protein TRPM8 is fused in C-terminal to a calflux-based calcium BRET sensor, said sensor being sandwiched between the nano luciferase and mNeonGreen. In an effort to exemplify and validate the concept of Calcium sensor-based BRET probes fused to other ion channels, we first assessed whether the activity of two other TRPs ion channels, TRPV4 and TRPM8, could also be measured using such BRET probes. […] The measured half-maximal responses were consistent with those reported in the literature using patch-clamp or calcium-flux measurements on cells transiently expressing TRPV4 or TRPM8.

[6] = target: T6, KiR6.1 (Homo sapiens, UniProt Q15842); test: mNeon-KBP-nLuc-KiR6.1 BRET probe in HEK293T cells; conditions: KCl depolarisation, FIG. 10B
T6 construct: expressed in transfected cells; host or cells: HEK293T
T6 sequence (Q15842 1-424): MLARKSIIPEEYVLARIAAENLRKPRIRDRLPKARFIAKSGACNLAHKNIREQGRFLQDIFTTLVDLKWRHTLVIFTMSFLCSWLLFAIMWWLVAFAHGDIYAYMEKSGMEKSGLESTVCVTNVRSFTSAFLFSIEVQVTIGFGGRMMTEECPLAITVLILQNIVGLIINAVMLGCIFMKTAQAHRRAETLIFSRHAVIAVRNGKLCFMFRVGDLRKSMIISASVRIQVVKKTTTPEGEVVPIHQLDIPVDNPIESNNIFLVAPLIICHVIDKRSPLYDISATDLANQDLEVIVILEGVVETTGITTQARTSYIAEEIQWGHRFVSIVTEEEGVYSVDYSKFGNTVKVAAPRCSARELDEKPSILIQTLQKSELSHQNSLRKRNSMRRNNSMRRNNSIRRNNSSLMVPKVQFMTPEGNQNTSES
Text: […] C) Kinetic measurement of the effect of Deltamethrine injection on the BRET measured from HEK293T cells transiently expressing mNeon-SOFI-nLuc-NaV1.8 BRET probe.
as §2

[7] = target: T7, TRPM8 (Homo sapiens, UniProt Q7Z2W7); test: mNeonGreen-Calflux-nLuc-hTRPM8 BRET probe in HEK293T cells
T7 construct: expressed in transfected cells; host or cells: HEK293T
T7 sequence (Q7Z2W7 whole entry): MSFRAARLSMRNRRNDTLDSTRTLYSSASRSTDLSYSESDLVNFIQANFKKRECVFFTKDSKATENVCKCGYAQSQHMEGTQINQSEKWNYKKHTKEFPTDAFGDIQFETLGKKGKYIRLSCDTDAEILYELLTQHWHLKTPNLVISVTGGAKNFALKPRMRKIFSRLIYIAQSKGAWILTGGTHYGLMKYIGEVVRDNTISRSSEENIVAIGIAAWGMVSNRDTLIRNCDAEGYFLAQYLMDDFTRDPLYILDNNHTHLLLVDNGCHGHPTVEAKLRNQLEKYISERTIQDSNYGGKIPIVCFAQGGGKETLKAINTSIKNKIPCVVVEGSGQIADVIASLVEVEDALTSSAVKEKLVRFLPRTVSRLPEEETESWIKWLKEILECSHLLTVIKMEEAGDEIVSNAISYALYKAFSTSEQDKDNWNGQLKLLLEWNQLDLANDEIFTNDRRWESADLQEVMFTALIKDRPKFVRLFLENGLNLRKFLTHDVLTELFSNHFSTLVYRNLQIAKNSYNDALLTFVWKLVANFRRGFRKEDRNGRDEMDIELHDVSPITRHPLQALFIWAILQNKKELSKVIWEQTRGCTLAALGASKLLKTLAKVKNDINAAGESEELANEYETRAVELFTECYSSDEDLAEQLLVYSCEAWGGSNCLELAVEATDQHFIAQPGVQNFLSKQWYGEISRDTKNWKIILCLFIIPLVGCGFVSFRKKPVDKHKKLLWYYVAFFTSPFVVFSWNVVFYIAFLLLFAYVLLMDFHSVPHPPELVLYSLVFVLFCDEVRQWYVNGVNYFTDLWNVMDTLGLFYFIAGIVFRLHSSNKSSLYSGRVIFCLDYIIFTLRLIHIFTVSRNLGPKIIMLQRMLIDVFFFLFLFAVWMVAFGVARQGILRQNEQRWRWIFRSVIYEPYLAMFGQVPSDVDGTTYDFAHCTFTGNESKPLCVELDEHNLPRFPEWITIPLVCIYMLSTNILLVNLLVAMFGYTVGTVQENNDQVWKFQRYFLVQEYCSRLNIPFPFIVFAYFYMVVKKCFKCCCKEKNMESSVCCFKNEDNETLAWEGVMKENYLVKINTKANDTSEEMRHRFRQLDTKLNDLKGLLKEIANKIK
Experimental: as §3, §4

[8] = target: T8, NR1-nLuc-Calflux-YFP/NR2B ion channels (NMDA receptors) (Homo sapiens, UniProt Q05586+Q13224); test: NR1-nLuc-Calflux-YFP BRET probe coexpressed with NR2B in HEK293T cells; conditions: read-out: EC50 of activation of NR1-nLuc-Calflux-YFP/NR2B
T8 construct: expressed in transfected cells; host or cells: HEK293T
Text: (§5) FIG. 7: Dose-response for NMDA as measured in HEK293T cells transiently expressing the NR1-nLuc-Calflux-YFP probe alone (A) or coexpressed with NR2A (B) or NR2B (C) subunits.
(§6) We have constructed a novel BRET probe allowing to measure the activity of NMDA receptors by coupling the cDNA of the NR1 subunit to the BRET sensor nLuc-Calflux-YFP (FIG. 7). NMDA receptors are heterotetramers comprising 2 NR1 subunits and 2 NR2 or NR3 subunits. The subunits NR1, NR2 or NR3 expressed separately cannot form functional receptors.

[9] = target: T9, NR1 subunit (Homo sapiens, UniProt Q05586); test: NR1-nLuc-Calflux-YFP BRET probe expressed alone in HEK293T cells; conditions: increasing dose, FIG. 7A
T9 construct: expressed in transfected cells; host or cells: HEK293T
Text: as §5, §6

[10] = target: T10, PIEZO1 channel (Homo sapiens, UniProt Q92508); test: mNeonGreen-Calflux-nLuc-PIEZO1 BRET probe in HEK293T cells; conditions: FIG. 9C
T10 construct: expressed in transfected cells; host or cells: HEK293T
Experimental: as §3
This confirms the functionality of our calcium sensor-based BRET Probe targeting PIEZO1.

[11] = test system: potassium channel SK3 (KCa2.3); test: SK3-nLuc-KBP-mNeonGreen BRET probe in HEK293T cells; conditions: different concentrations, FIG. 5B
Text: FIG. 5: is a schematic representation of the SK3-nLuc-KBP-mNeonGreen probe (A) and the measure of BRET signal as obtained during the activation of the channel in presence of lonomycine (B).
The novel BRET probe has been constructed to measure the activity of potassium channel SK3 (KCa2.3) by coupling the cDNA of the SK3 channel to a potassium sensor (protein KBP, Ashrafet KU al., 2016, Structure 24, 741-749) sandwiched in between luciferase and mNeonGreen (SK3-nLuc-KBP-mNeonGreen, See FIG. 5A).
The BRET sensor is based on KBP which has been published (Bischof H et al, 2017, Nat Commun. 8(1):1422), but this sensor was never coupled to a channel in order to specifically measure the activity of the channel as presented in this invention.

[12] = HEK293T cells pre-treated with 10 μM antagonist

T1 sequence (Q8NER1 whole entry): as the sequence (Q8NER1 whole entry) above

## CC(=O)Nc1nc2c(Oc3cc(-c4ccc(C(F)(F)F)cc4)ncn3)cccc2s1 [AMG517]
[1]; FIG. 4A
  effect on dose-response to CAPS (antagonism): shifted the dose-response to CAPS to the right
[2]
  inhibition of CAPS-induced BRET increase: inhibited the CAPS-induced BRET increase

## c1ccc(-c2nn[nH]n2)c(Nc2cccc3c2CCCC3)c1 [BL1249]
[3]
  change of basal BRET: dose-dependently increased the basal BRET

## COc1cc(CNC(=O)CCCC/C=C/C(C)C)ccc1O [CAPS, Capsaïcin]
[2]; kinetic measurement, FIG. 8A
  change of basal BRET after exposure: dramatically increased with first-order kinetics

## CC1(C)[C@H](C(=O)O[C@H](C#N)c2cccc(Oc3ccccc3)c2)[C@@H]1C=C(Br)Br [Deltamethrin]
[4]
  change of BRET signal: decrease of the BRET signal

## CC(C)C[C@H](NC(=O)c1cc2ccccc2s1)C(=O)N1CCN(C(=O)[C@H](CO)NS(=O)(=O)c2ccc(Cl)cc2Cl)CC1 [GSK1016790A]
[5]; HEK293T cells, FIG. 9A
  change of BRET signal by agonist: dose-dependently increased

## Cc1c(C(=O)Nc2cccc(C(F)(F)F)c2)cc(-c2ccccc2)n1CCCN1CCOCC1 [HC060747]
[5]; [12]
  effect on agonist (GSK1016790A) potency: right-shifted the corresponding agonist potency to higher values

## [Cl-].[K+] [KCl]
[6]
  change of BRET signal: increase of the BRET signal

## COc1cc(CN(CCN)C(=O)c2cccs2)ccc1OCc1ccccc1.Cl [MBB]
[7]; [12]
  effect on agonist (WS12) potency: right-shifted the corresponding agonist potency to higher values

## CN[C@H](CC(=O)O)C(=O)O [NMDA, N-methyl-D-aspartate]
[8]
  pEC50: 4.91
[9]
  modulation of BRET signal, NR1 probe alone: not modulated

## CC(C)NCCN(C(C)C)S(=O)(=O)c1ccc(Cl)cc1Cl [RN1734]
[2]
  inhibition of CAPS-induced BRET increase: failed to inhibit

## COc1ccc(NC(=O)[C@@H]2C[C@H](C)CC[C@H]2C(C)C)cc1 [WS12]
[7]; HEK293T cells, FIG. 9B
  change of BRET signal by agonist: dose-dependently increased

## Clc1cccc(Cl)c1CSc1nnc(-c2cnccn2)s1 [YODA1]
[10]
  change of BRET signal by agonist: dose-dependently increased

## C[C@H](CCC(=O)O)C[C@H](C)C[C@H](C)C(=O)/C=C(\O)[C@H](C)C[C@H](C)C/C=C/[C@@H](C)[C@@H](O)[C@@H](C)[C@@H](O)C[C@@H]1CC[C@@](C)([C@H]2CC[C@@](C)([C@@H](C)O)O2)O1 [ionomycin]
[1]; TRPV1-nLuc-Calflux-YFP/mNeonGreen probe
  change of BRET signal on stimulation: marginal increase
[11]
  change of BRET signal (potassium efflux): decrease of the BRET signal
